Laboratory results reported in the supplement of paper PMC10307832.

Key:
Assay in all cases: relative viability (nuclei count vs DMSO), 5 days (fraction); higher = more cells survive
Quizartinib + Dasatinib = compound: CC(C)(C)c1cc(NC(=O)Nc2ccc(-c3cn4c(n3)sc3cc(OCCN5CCOCC5)ccc34)cc2)no1 [Quizartinib] + Cc1nc(Nc2ncc(C(=O)Nc3c(C)cccc3Cl)s2)cc(N2CCN(CCO)CC2)n1 [Dasatinib] (partner 0.075 µM)
Method in brief: (§1)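 Relative viability was taken as the ratio of nuclei in treated wells to nuclei in vehicle wells. Lung cancer cell lines in 1536-well plates received compounds by pin tool one day after seeding, either one drug alone or a fixed anchor-drug dose plus five library-drug doses (not always all listed) in √10 steps. Nuclei were counted on 4× images after 5 days of treatment, and values are medians of duplicate plates.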

YM155 + Trametinib = compound: COCC[n+]1c2c(n(Cc3cnccn3)c1C)C(=O)c1ccccc1C2=O [YM155] + CC(=O)Nc1cccc(-n2c(=O)n(C3CC3)c(=O)c3c(Nc4ccc(I)cc4F)n(C)c(=O)c(C)c32)c1 [Trametinib] (partner 0.02 µM)
Method in brief: as §1

YM155 + Foretinib = compound: COCC[n+]1c2c(n(Cc3cnccn3)c1C)C(=O)c1ccccc1C2=O [YM155] + COc1cc2c(Oc3ccc(NC(=O)C4(C(=O)Nc5ccc(F)cc5)CC4)cc3F)ccnc2cc1OCCCN1CCOCC1 [Foretinib] (partner 0.25 µM)
Method in brief: as §1

YM155 + Pictilisib = compound: COCC[n+]1c2c(n(Cc3cnccn3)c1C)C(=O)c1ccccc1C2=O [YM155] + CS(=O)(=O)N1CCN(Cc2cc3nc(-c4cccc5[nH]ncc45)nc(N4CCOCC4)c3s2)CC1 [Pictilisib] (partner 1 µM)
Method in brief: as §1

Cell Line	relative viability (Quizartinib + Dasatinib; first compound 0.001 µM)	relative viability (Quizartinib + Dasatinib; first compound 0.003162 µM)	relative viability (Quizartinib + Dasatinib; first compound 0.01 µM)	relative viability (Quizartinib + Dasatinib; first compound 0.03162 µM)	relative viability (Quizartinib + Dasatinib; first compound 0.1 µM)	relative viability (YM155 + Trametinib; first compound 0.002 µM)	relative viability (YM155 + Trametinib; first compound 0.006325 µM)	relative viability (YM155 + Trametinib; first compound 0.02 µM)	relative viability (YM155 + Trametinib; first compound 0.06325 µM)	relative viability (YM155 + Foretinib; first compound 0.002 µM)	relative viability (YM155 + Foretinib; first compound 0.006325 µM)	relative viability (YM155 + Foretinib; first compound 0.02 µM)	relative viability (YM155 + Foretinib; first compound 0.06325 µM)	relative viability (YM155 + Pictilisib; first compound 0.002 µM)	relative viability (YM155 + Pictilisib; first compound 0.006325 µM)	relative viability (YM155 + Pictilisib; first compound 0.02 µM)	relative viability (YM155 + Pictilisib; first compound 0.06325 µM)
RERF-LC-KJ	0.765	0.755	0.794	0.414	0.681	0.896	0.952	0.942	0.707	0.945	0.837	0.909	0.854	0.527	0.51	0.55	0.593
SK-LU-1	0.178	0.169	0.204	0.183	0.232	0.455	0.456	0.564	0.438	0.766	0.738	0.904	0.661	0.606	0.496	0.483	0.545
SK-MES-1	0.337	0.354	0.404	–	0.273	0.588	0.701	0.459	0.218	0.9	0.889	0.921	0.921	0.395	0.359	0.377	0.24
SW 1573	0.417	0.481	0.561	–	0.76	0.59	0.453	0.16	0.0853	0.986	0.974	0.92	0.877	0.484	0.465	0.426	0.0949
UMC-11	–	0.386	0.487	0.434	0.454	0.56	0.745	0.771	0.739	0.966	1.1	1.08	1.12	0.68	0.863	0.824	0.787
